{"source": "patent US11351178B2", "about": "“Selective HDAC6 inhibitors” (ITALFARMACO S.P.A., priority 2017, dated 2022)", "key": {"[1]": {"assay": "Stability to Phase I metabolism in rat S9 liver fraction", "format": "in vitro ADME", "settings": "after 90 min, 37° C.", "protocol": "Test compounds were incubated in rat and human liver S9 fraction at 37° C. up to 90 minutes in order to evaluate their stability to Phase I metabolism by hepatic enzymes. […] The reaction was stopped placing samples on ice bath and adding acidified acetonitrile. After centrifugation (10 minutes at 14000 rpm) an aliquot of the supernatant was diluted water, filtered with 0.45 μm regenerated cellulose syringe filters and injected in HPLC-UV or in LC-MS/MS. The percentages of the amount remaining at the various incubation times with respect to the initial amount were calculated. The intrinsic clearance was also calculated."}, "[2]": {"molecular_target": "T1, recombinant human HDAC6 (Homo sapiens, UniProt Q9UBN7)", "T1 sequence (Q9UBN7 1-1215)": "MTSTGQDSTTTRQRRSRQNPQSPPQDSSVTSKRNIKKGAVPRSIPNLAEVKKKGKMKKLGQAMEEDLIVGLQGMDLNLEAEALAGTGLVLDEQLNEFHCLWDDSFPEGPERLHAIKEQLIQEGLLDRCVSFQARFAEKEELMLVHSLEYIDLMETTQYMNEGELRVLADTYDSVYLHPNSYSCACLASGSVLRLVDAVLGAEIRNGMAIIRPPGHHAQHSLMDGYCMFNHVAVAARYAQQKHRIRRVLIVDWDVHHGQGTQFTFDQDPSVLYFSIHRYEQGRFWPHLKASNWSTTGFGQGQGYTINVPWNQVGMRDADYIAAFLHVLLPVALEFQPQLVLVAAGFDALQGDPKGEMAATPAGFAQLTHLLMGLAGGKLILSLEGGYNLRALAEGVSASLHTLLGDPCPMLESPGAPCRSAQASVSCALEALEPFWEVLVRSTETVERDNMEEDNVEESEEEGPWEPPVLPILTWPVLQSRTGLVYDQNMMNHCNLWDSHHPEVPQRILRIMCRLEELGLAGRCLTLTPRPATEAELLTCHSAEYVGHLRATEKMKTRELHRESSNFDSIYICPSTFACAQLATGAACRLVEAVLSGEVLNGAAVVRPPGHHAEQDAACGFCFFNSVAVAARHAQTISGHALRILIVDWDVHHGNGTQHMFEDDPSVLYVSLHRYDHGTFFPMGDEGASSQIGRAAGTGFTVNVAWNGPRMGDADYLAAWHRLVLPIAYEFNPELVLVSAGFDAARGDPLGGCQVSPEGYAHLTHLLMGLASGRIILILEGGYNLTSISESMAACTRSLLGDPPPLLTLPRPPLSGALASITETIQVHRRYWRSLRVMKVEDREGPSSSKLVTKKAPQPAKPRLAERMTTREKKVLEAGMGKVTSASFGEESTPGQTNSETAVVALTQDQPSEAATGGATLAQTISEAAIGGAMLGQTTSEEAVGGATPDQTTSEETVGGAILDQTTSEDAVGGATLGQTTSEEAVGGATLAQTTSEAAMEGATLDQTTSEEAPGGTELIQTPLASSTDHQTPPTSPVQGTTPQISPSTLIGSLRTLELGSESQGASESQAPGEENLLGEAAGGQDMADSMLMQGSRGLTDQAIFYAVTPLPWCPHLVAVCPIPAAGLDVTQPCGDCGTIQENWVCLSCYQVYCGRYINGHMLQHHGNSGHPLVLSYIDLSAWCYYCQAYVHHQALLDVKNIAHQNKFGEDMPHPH", "assay": "Enzymatic screening on recombinant human HDAC6", "format": "biochemical", "settings": "Table 2; read-out: HDAC6 IC50", "method_in_brief": "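Substrates were Fluor de Lys, Fluor de Lys-Green or trifluoroacetyl-L-lysine, in 25 mM Tris-HCl pH 8, 130 mM NaCl, 0.05% Tween-20, 10% glycerol. They were added after isoform-dependent preincubation of recombinant human enzyme with compound at 30 °C, and the reaction also ran at 30 °C.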"}, "[3]": {"assay": "Stability in rat plasma", "format": "in vitro ADME", "settings": "after 4 hours, 37° C.", "protocol": "In order to evaluate the stability to circulating enzymes, test compounds were incubated in human and rat plasma at 37° C. in a thermostated oscillating bath. Each test compound was incubated at μM (50 μM when the samples were analysed by UV/HPLC, 1 or 2 μM when the samples were analysed by LC-MS/MS) concentration for 0, 15, 30 min and 1, 2 and 4 hours. The reaction was stopped placing tubes on ice bath and adding acidified acetonitrile. After centrifugation for 10 minutes at 14000 rpm, an aliquot of the supernatant was diluted with water, filtered with 0.45 μm syringe filters and injected in HPLC-UV or in LC-MS/MS. The percentages of amount remaining at the various times of incubation with respect to initial amount were calculated. The half-life in plasma was also calculated."}}, "data": [{"compound": "O=C(NO)c1ccc(Cn2nnnc2Cc2ccccc2)cc1", "note": "[comp. 37, 4-[(5-benzyltetrazol-1-yl)methyl]benzenecarbohydroxamic acid]", "values": [{"measurement": "residual percentage in rat S9 fraction", "setting": "[1]", "value": 82, "unit": "%"}, {"measurement": "IC50", "setting": "[2]", "value": 212, "unit": "nM"}, {"measurement": "residual percentage in rat plasma", "setting": "[3]", "value": 6, "unit": "%"}]}, {"compound": "O=C(NO)c1ccc(Cn2nnc(-c3ccc(Cl)cc3)n2)cc1", "note": "[comp. 31, 4-[[5-(4-chlorophenyl)tetrazol-2-yl]methyl]benzenecarbohydroxamic acid]", "values": [{"measurement": "residual percentage in rat S9 fraction", "setting": "[1]", "value": 0, "unit": "%"}, {"measurement": "IC50", "setting": "[2]", "value": 14, "unit": "nM"}, {"measurement": "residual percentage in rat plasma", "setting": "[3]", "value": 76, "unit": "%"}]}, {"compound": "COc1ccc(C2(c3nnc(Sc4c(F)cc(C(=O)NO)cc4F)n3C)CCCCC2)cc1", "note": "[comp. 103, 3,5-difluoro-4-[[5-[1-(4-methoxyphenyl)cyclohexyl]-4-methyl-1,2,4-triazol-3-yl]sulfanyl]benzenecarbohydroxamic acid]", "values": [{"measurement": "residual percentage in rat S9 fraction", "setting": "[1]", "value": 5, "unit": "%"}, {"measurement": "IC50", "setting": "[2]", "value": 56, "unit": "nM"}, {"measurement": "residual percentage in rat plasma", "setting": "[3]", "value": 79, "unit": "%"}]}, {"compound": "O=C(NO)c1cc(F)c(Sc2nnc(-c3ccccn3)n2Cc2ccco2)c(F)c1", "note": "[comp. 140, 3,5-difluoro-4-[[4-(2-furylmethyl)-5-(2-pyridyl)-1,2,4-triazol-3-yl]sulfanyl]benzenecarbohydroxamic acid]", "values": [{"measurement": "residual percentage in rat S9 fraction", "setting": "[1]", "value": 12, "unit": "%"}, {"measurement": "IC50", "setting": "[2]", "value": 14, "unit": "nM"}, {"measurement": "residual percentage in rat plasma", "setting": "[3]", "value": 85, "unit": "%"}]}, {"compound": "O=C(NO)c1cc(F)c(Sc2nnc(N3CCOCC3)n2Cc2ccccc2)c(F)c1", "note": "[comp. 117, 4-[(4-benzyl-5-morpholino-1,2,4-triazol-3-yl)sulfanyl]-3,5-difluoro-benzenecarbohydroxamic acid]", "values": [{"measurement": "residual percentage in rat S9 fraction", "setting": "[1]", "value": 88, "unit": "%"}, {"measurement": "IC50", "setting": "[2]", "value": 17, "unit": "nM"}, {"measurement": "residual percentage in rat plasma", "setting": "[3]", "value": 82, "unit": "%"}]}, {"compound": "O=C(NO)c1cc(F)c(Sc2nnc(-c3ccccc3F)n2Cc2ccco2)c(F)c1", "note": "[comp. 145, 3,5-difluoro-4-[[5-(2-fluorophenyl)-4-(2-furylmethyl)-1,2,4-triazol-3-yl]sulfanyl]benzenecarbohydroxamic acid]", "values": [{"measurement": "residual percentage in rat S9 fraction", "setting": "[1]", "value": 7, "unit": "%"}, {"measurement": "IC50", "setting": "[2]", "value": 16, "unit": "nM"}, {"measurement": "residual percentage in rat plasma", "setting": "[3]", "value": 79, "unit": "%"}]}, {"compound": "Cn1c(Sc2ccc(C(=O)NO)cc2)nnc1C1COc2ccccc2O1", "note": "(stereo not drawn) [comp. 83, 4-[[5-(2,3-dihydro-1,4-benzodioxin-3-yl)-4-methyl-1,2,4-triazol-3-yl]sulfanyl]benzenecarbohydroxamic acid]", "values": [{"measurement": "residual percentage in rat S9 fraction", "setting": "[1]", "value": 92, "unit": "%"}, {"measurement": "IC50", "setting": "[2]", "value": 22, "unit": "nM"}, {"measurement": "residual percentage in rat plasma", "setting": "[3]", "value": 76, "unit": "%"}]}, {"compound": "O=C(NO)c1cc(F)c(Cn2nnnc2-c2ccc3ccccc3n2)c(F)c1", "note": "[comp. 96, 3,5-difluoro-4-[[5-(2-quinolyl)tetrazol-1-yl]methyl]benzenecarbohydroxamic acid]", "values": [{"measurement": "residual percentage in rat S9 fraction", "setting": "[1]", "value": 41, "unit": "%"}, {"measurement": "IC50", "setting": "[2]", "value": 7, "unit": "nM"}, {"measurement": "residual percentage in rat plasma", "setting": "[3]", "value": 99, "unit": "%"}]}, {"compound": "Cn1c(Sc2c(F)cc(C(=O)NO)cc2F)nnc1C1(c2ccccc2)CCC1", "note": "[comp. 101, 3,5-difluoro-4-[[4-methyl-5-(1-phenylcyclobutyl)-1,2,4-triazol-3-yl]sulfanyl]benzenecarbohydroxamic acid]", "values": [{"measurement": "residual percentage in rat S9 fraction", "setting": "[1]", "value": 9, "unit": "%"}, {"measurement": "IC50", "setting": "[2]", "value": 18, "unit": "nM"}, {"measurement": "residual percentage in rat plasma", "setting": "[3]", "value": 73, "unit": "%"}]}, {"compound": "O=C(NO)c1cc(F)c(Cn2nnc(-c3ccc4ccccc4n3)n2)c(F)c1", "note": "[comp. 95, 3,5-difluoro-4-[[5-(2-quinolyl)tetrazol-2-yl]methyl]benzenecarbohydroxamic acid]", "values": [{"measurement": "residual percentage in rat S9 fraction", "setting": "[1]", "value": 41, "unit": "%"}, {"measurement": "IC50", "setting": "[2]", "value": 10, "unit": "nM"}, {"measurement": "residual percentage in rat plasma", "setting": "[3]", "value": 75, "unit": "%"}]}, {"compound": "O=C(NO)c1cc(F)c(Sc2nnc(N3CCCC3)n2Cc2ccco2)c(F)c1", "note": "[comp. 116, 3,5-difluoro-4-[[4-(2-furylmethyl)-5-pyrrolidin-1-yl-1,2,4-triazol-3-yl]sulfanyl]benzenecarbohydroxamic acid]", "values": [{"measurement": "residual percentage in rat S9 fraction", "setting": "[1]", "value": 65, "unit": "%"}, {"measurement": "IC50", "setting": "[2]", "value": 25, "unit": "nM"}, {"measurement": "residual percentage in rat plasma", "setting": "[3]", "value": 78, "unit": "%"}]}, {"compound": "COc1ccc(Cc2nc(Cc3ccc(C(=O)NO)cc3)n(-c3ccc(C(F)(F)F)cc3)n2)cc1OC", "note": "[comp. 44, 4-[[5-[(3,4-dimethoxyphenyl)methyl]-2-[4-(trifluoromethyl)phenyl]-1,2,4-triazol-3-yl]methyl]benzenecarbohydroxamic acid]", "values": [{"measurement": "residual percentage in rat S9 fraction", "setting": "[1]", "value": 87, "unit": "%"}, {"measurement": "IC50", "setting": "[2]", "value": 415, "unit": "nM"}, {"measurement": "residual percentage in rat plasma", "setting": "[3]", "value": 32, "unit": "%"}]}, {"compound": "COc1ccc(-c2nc(Cc3ccc(C(=O)NO)cc3)no2)cc1OC", "note": "[comp. 49, 4-[[5-(3,4-dimethoxyphenyl)-1,2,4-oxadiazol-3-yl]methyl]benzenecarbohydroxamic acid]", "values": [{"measurement": "residual percentage in rat S9 fraction", "setting": "[1]", "value": 57, "unit": "%"}, {"measurement": "IC50", "setting": "[2]", "value": 7, "unit": "nM"}, {"measurement": "residual percentage in rat plasma", "setting": "[3]", "value": 82, "unit": "%"}]}, {"compound": "Cn1c(Sc2c(F)cc(C(=O)NO)cc2F)nnc1C1(c2cccc(F)c2)CCCC1", "note": "[comp. 102, 3,5-difluoro-4-[[5-[1-(3-fluorophenyl)cyclopentyl]-4-methyl-1,2,4-triazol-3-yl]sulfanyl]benzenecarbohydroxamic acid]", "values": [{"measurement": "residual percentage in rat S9 fraction", "setting": "[1]", "value": 16, "unit": "%"}, {"measurement": "IC50", "setting": "[2]", "value": 33, "unit": "nM"}, {"measurement": "residual percentage in rat plasma", "setting": "[3]", "value": 82, "unit": "%"}]}, {"compound": "Cc1ccsc1-c1nnn(Cc2ccc(C(=O)NO)cc2)n1", "note": "[comp. 39, 4-[[5-(3-methyl-2-thienyl)tetrazol-2-yl]methyl]benzenecarbohydroxamic acid]", "values": [{"measurement": "residual percentage in rat S9 fraction", "setting": "[1]", "value": 0, "unit": "%"}, {"measurement": "IC50", "setting": "[2]", "value": 3, "unit": "nM"}, {"measurement": "residual percentage in rat plasma", "setting": "[3]", "value": 63, "unit": "%"}]}, {"compound": "O=C(NO)c1cc(F)c(Sc2nnc(CN3CCCCC3)n2-c2ccc(F)cc2)c(F)c1", "note": "[comp. 115, 3,5-difluoro-4-[[4-(4-fluorophenyl)-5-(1-piperidylmethyl)-1,2,4-triazol-3-yl]sulfanyl]benzenecarbohydroxamic acid]", "values": [{"measurement": "residual percentage in rat S9 fraction", "setting": "[1]", "value": 57, "unit": "%"}, {"measurement": "IC50", "setting": "[2]", "value": 122, "unit": "nM"}, {"measurement": "residual percentage in rat plasma", "setting": "[3]", "value": 73, "unit": "%"}]}, {"compound": "Cc1ccc(-c2cc(-c3nnc(Sc4ccc(C(=O)NO)cc4)n3C)c3ccccc3n2)cc1", "note": "[comp. 67, 4-[[4-methyl-5-[2-(p-tolyl)-4-quinolyl]-1,2,4-triazol-3-yl]sulfanyl]benzenecarbohydroxamic acid]", "values": [{"measurement": "residual percentage in rat S9 fraction", "setting": "[1]", "value": 44, "unit": "%"}, {"measurement": "IC50", "setting": "[2]", "value": 70, "unit": "nM"}, {"measurement": "residual percentage in rat plasma", "setting": "[3]", "value": 101, "unit": "%"}]}]}
